In the experiment the target is T1, P-glycoprotein.
T1 construct: plasma membrane vesicles from EHR2/DNR+ Ehrlich ascites tumour cells
Put plainly: inhibition of 3H-vincristine binding to plasma membrane vesicles, rapid filtration. The experiment is classed as biochemical.

SMILES strings stand for the structures.

As for `CN1CCN(CCCN2c3ccccc3Sc3ccc(C(F)(F)F)cc32)CC1` [TFP, trifluoperazine], the half-inhibitory concentration (IC50) worked out at 23.2 µM.

For orientation: IC50 means the midpoint of a concentration-inhibition curve. Higher therefore signals lower potency.
